Experimental data as given in patent publication US20240246933A1, “CRYSTALLINE FORM OF TRICYCLIC DERIVATIVE COMPOUND, METHOD FOR PREPARING SAME, AND PHARMACEUTICAL COMPOSITION COMPRISING SAME” (ONCONIC THERAPEUTICS INC., priority 2021, published 2024).
Where a name gives a salt, the structure may show the parent alone. Read-outs that look alike come from different tables or passages of the source. Blank lines part the entries; values can stand above or below the compound they belong to.

Legend:
[1] = Measurement of solubility in water (shake-flask, UPLC); assay type: physicochemical; details: for Water solubility: shake-flask shaken for 24 hours, UPLC
Protocol: Compounds are dissolved in DMSO and measured by UPLC, and then a calibration curve is drawn. The compounds saturated by the Shake-flask method are filtered and then measured by UPLC, and it is substituted into a calibration curve to calculate the concentration.

[2] = Stability of the addition salt of Compound 1 (temperature, humidity, light; purity by HPLC); assay type: physicochemical; details: for Stability in the temperature and humidity (in words): temperature and humidity conditions of Table 5
Protocol: The stability of crystals of the addition salt of Compound 1 prepared in the Examples and Comparative Examples above was confirmed, and the results are shown in Table 5 below.
Experiments according to temperature, humidity and light conditions were carried out by a method of confirming purity by HPLC after storage in a stability chamber under each condition.
Each sample was spread thinly in a Petri dish, and then the stability was evaluated after irradiation with UV light having a light intensity of 35 W to a total irradiation amount of 200 watts under conditions of 25° C. and 60% humidity using a photostability test chamber (CARON 6542-2).
Each sample was spread thinly in a Petri dish, and then the stability was evaluated after irradiation with visible light having a light intensity of 35 k Lux to a total irradiation amount of 1200 k lux under conditions of 25° C. and 60% humidity using a photostability test chamber (CARON 6542-2).

[3] = molecular target: T1, tankyrase-2 enzyme (Homo sapiens, UniProt Q9H2K2); assay: Inhibition test of tankyrase-2 enzyme (BPS Bioscience kit); assay type: biochemical; details: tankyrase-2 enzyme 15 ng/well, 25° C. for 1 hour; read-out: IC50 (tankyrase-2 enzyme inhibitory activity)
T1 construct: purchased BPS Bioscience 80578
Protocol: (§1) Histones were coated on a 96-well plate provided from BPS Bioscience's kit and left at 4 °C for 16 hours. […] After 1 hour, each well was washed 4 times with PBST, and streptavidin-linked peroxidase (Strep-HRP, 1:50 dilution) was added thereto to measure the amount of ribosylation by PARP enzyme, and reacted at 25° C. for 30 minutes. The plate was washed 4 times with PBST, and then HRP chemiluminescent substrate was finally added thereto and reacted. The amount of histone ribosylation formed by each enzyme was quantified using a Synergy™ H4 Hybrid Multi-Mode Microplate Reader (BioTek Instruments, Inc., US (A)).

[4] = molecular target: PARP-1 enzyme (Homo sapiens, UniProt P09874); assay: Inhibition test of poly (ADP-ribose) polymerase [PARP-1] enzyme (BPS Bioscience kit)
Protocol: Histones were coated on a 96-well plate provided from BPS Bioscience's kit and left at 4° C. for 16 hours. […] After 1 hour, each well was washed 4 times with PBST, and streptavidin-linked peroxidase (Strep-HRP, 1:50 dilution) was added thereto to measure the amount of ribosylation by PARP enzyme, and reacted at 25° C. for 30 minutes. The plate was washed 4 times with PBST, and then HRP chemiluminescent substrate was finally added thereto and reacted. The amount of histone ribosylation formed by each enzyme was quantified using a Synergy™ H4 Hybrid Multi-Mode Microplate Reader (BioTek Instruments, Inc., US (A)).

[5] = Measurement of solubility in various solvents; assay type: physicochemical; details: 0.1 g of sample, 15 to 25° C., within 30 minutes
Protocol: Specifically, 0.1 g of sample was accurately weighed, put into each solvent, and shaken and mixed vigorously for 30 seconds every 5 minutes at 15 to 25° C., and the amount dissolved within 30 minutes was measured.

[6] = Purity and stability under accelerated and long-term storage conditions (HPLC); assay type: physicochemical; details: for Purity under long-term storage conditions (area %) / Long-term storage conditions (related substances) (area %): 25±2° C., humidity 60±5%; for Purity under accelerated storage conditions (area %) / Accelerated storage conditions (related substances) (area %): 40±2° C., humidity 75±5%
Protocol: The purity and stability of the crystalline anhydride of the citrate prepared in Example 2 and the crystalline monohydrate of the citrate prepared in Example 3 according to the present invention were evaluated, and the results are shown in Tables 8 and 9 below.
In the tables below, stability tests were conducted under accelerated storage conditions of a temperature of 40±2° C. and humidity of 75±5%, and purity and stability tests were conducted under long-term storage conditions of a temperature of 25±2° C. and humidity of 60±5%. Experimental results were measured under the same conditions as in Experimental Example 1 using HPLC (product name: agilent 1290, manufacturer: Agilent).

[7] = molecular target: tankyrase-1 enzyme (Homo sapiens, UniProt O95271); assay: biochemical
Protocol: as §1

[8] = Temperature of 40° C., humidity of 70%, 3 days
[9] = UV 200 watt, 25° C. and 60% humidity
[10] = Visible 1200k lux, 25° C. and 60% humidity
[11] = 3 months, listed as Crystalline anhydride of citrate in Example 2
[12] = 6 months, listed as Crystalline anhydride of citrate in Example 2
[13] = initial, listed as Crystalline anhydride of citrate in Example 2
[14] = 3 months, listed as Crystalline monohydrate of citrate in Example 3
[15] = 6 months, listed as Crystalline monohydrate of citrate in Example 3
[16] = initial, listed as Crystalline monohydrate of citrate in Example 3

T1 sequence (Q9H2K2 849-1166): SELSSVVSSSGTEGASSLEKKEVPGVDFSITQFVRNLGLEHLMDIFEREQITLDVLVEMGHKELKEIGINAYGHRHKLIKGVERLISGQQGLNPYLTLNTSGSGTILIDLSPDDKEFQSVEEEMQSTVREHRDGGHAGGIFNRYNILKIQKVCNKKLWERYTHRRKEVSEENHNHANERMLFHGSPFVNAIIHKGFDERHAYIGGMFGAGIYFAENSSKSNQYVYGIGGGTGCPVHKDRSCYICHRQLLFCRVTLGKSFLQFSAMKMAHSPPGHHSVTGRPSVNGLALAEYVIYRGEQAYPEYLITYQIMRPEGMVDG
Chain of PARP-1 enzyme (P09874 whole entry): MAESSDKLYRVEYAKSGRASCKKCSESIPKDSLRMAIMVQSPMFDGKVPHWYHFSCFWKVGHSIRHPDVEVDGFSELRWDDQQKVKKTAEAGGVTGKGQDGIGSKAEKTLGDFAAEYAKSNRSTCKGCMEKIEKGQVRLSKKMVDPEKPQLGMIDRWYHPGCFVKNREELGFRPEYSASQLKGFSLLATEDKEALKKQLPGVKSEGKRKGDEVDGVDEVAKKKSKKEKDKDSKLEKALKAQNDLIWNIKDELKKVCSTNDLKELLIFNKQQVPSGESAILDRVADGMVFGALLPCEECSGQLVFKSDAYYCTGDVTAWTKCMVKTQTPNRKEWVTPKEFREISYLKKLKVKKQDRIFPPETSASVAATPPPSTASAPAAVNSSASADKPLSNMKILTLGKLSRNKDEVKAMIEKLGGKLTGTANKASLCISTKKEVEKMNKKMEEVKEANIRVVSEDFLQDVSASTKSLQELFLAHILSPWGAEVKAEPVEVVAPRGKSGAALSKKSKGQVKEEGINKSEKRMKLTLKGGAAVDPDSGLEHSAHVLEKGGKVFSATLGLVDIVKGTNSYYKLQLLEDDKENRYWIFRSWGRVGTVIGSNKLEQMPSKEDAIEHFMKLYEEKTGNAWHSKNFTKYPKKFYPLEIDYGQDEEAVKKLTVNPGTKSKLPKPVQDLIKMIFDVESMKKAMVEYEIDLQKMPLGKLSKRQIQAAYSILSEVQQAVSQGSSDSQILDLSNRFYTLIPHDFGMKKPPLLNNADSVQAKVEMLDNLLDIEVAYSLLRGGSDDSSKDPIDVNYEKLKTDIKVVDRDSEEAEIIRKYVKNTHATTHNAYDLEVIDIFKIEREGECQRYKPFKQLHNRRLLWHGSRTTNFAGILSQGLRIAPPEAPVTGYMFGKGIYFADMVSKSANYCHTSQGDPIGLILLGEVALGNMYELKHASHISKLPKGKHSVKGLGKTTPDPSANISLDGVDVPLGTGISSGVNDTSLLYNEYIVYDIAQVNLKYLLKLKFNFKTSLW
Chain of tankyrase-1 enzyme (O95271 1001-1327): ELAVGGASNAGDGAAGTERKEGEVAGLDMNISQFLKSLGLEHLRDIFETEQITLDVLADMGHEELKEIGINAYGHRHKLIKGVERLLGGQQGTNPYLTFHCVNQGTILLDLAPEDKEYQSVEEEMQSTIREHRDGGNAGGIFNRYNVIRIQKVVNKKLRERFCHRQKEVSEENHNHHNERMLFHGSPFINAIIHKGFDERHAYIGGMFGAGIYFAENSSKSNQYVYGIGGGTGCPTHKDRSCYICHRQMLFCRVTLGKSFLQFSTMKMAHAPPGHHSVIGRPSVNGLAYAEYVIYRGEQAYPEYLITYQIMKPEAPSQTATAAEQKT

- Water solubility [1]: 392 µM
- Purity (%) ([2]; Humidity of 75%, 3 days): 97.76%
- Purity (%) ([2]; Initial value): 97.89%
- Purity (%) [2, 8]: 97.83%
- Purity (%) ([2]; Temperature of 50° C., 3 days): 97.79%
- Purity (%) ([2]; UV 200 watt - dark): 97.89%
- Photostability (in words) ([2]; UV200 watt and Visible1200 k lux): remarkably poor photostability
- Purity (%) [2, 9]: 86.89%
- Purity (%) ([2]; Visible 1200k lux - dark): 97.89%
- Purity (%) [2, 10]: 93.40%
- Stability in the temperature and humidity (in words) [2]: stable
- IC50 [3]: 1.12 nM
- IC50 ([4]; read-out: IC50 (PARP-1 enzyme inhibitory activity), PARP-1 enzyme 50 ng/well, 25° C. for 1 hour): 3.03 nM
Compound: Cl.Cl.N#Cc1ccc(N2CCN(Cc3ccc4c5c(c(=O)[nH]c4c3)CCCN5)CC2)nc1 [Comparative Example 2, Dichloride Salt of 6-{4-[(5-oxo-1,2,3,4,5,6-hexahydrobenzo[h][1,6]naphthyridin-8-yl)methyl]piperazine-1-yl}nicotinonitrile]

- Water solubility ([1]; listed as Crystal (free form) of the compound of Formula 1 in Comparative Example 1-1): 1 µM
- Solubility (0.1 g/mL) ([5]; Aqueous HCl solution (pH 1.1), listed as Free form): 350 mL
- Solubility (0.1 g/mL) ([5]; DMF, listed as Free form): 8 mL
- Solubility (0.1 g/mL) ([5]; EtOH, listed as Free form): ≥ 1000 mL
- Solubility (0.1 g/mL) ([5]; MeOH, listed as Free form): 300 mL
- Solubility (0.1 g/mL) ([5]; Water, listed as Free form): ≥ 1200 mL
Compound: N#Cc1ccc(N2CCN(Cc3ccc4c5c(c(=O)[nH]c4c3)CCCN5)CC2)nc1 [Compound 1, 6-{4-[(5-oxo-1,2,3,4,5,6-hexahydrobenzo[h][1,6]naphthyridin-8-yl)methyl]piperazin-1-yl}nicotinonitrile]

- Solubility in water (in words) ([1]; compared to other salts): remarkably excellent solubility in water
- Water solubility ([1]; listed as Crystalline anhydride of citrate of Compound 1): 1067 µM
- Purity (%) ([2]; Humidity of 75%, 3 days): 97.81%
- Purity (%) ([2]; Initial value): 97.97%
- Purity (%) [2, 8]: 97.79%
- Purity (%) ([2]; Temperature of 50° C., 3 days): 97.86%
- Purity (%) ([2]; UV 200 watt - dark): 98.38%
- Purity (%) [2, 9]: 96.94%
- Purity (%) ([2]; Visible 1200k lux - dark): 98.39%
- Purity (%) [2, 10]: 96.73%
- Stability in the temperature and humidity (in words) [2]: stable
- Solubility (0.1 g/mL) ([5]; Aqueous HCl solution (pH 1.1), listed as Crystalline anhydride of citrate in Example 2): ≤ 100 mL
- Solubility (0.1 g/mL) ([5]; DMF, listed as Crystalline anhydride of citrate in Example 2): 8 mL
- Solubility (0.1 g/mL) ([5]; EtOH, listed as Crystalline anhydride of citrate in Example 2): ≥ 1000 mL
- Solubility (0.1 g/mL) ([5]; MeOH, listed as Crystalline anhydride of citrate in Example 2): ≥ 100 mL
- Solubility (0.1 g/mL) ([5]; Water, listed as Crystalline anhydride of citrate in Example 2): ≤ 1000 mL
- Purity under long-term storage conditions (area %) ([6]; 1 month): 99.64%
- Purity under long-term storage conditions (area %) ([6]; 3 months): 99.66%
- Long-term storage conditions (related substances) (area %) [6, 11]: 0.28%
- Purity under long-term storage conditions (area %) ([6]; 6 months): 99.58%
- Long-term storage conditions (related substances) (area %) [6, 12]: 0.29%
- Long-term storage conditions (related substances) (area %) ([6]; 9 months): 0.31%
- Purity under long-term storage conditions (area %) ([6]; 9 months): 99.67%
- Long-term storage conditions (related substances) (area %) ([6]; 12 months): 0.29%
- Purity under long-term storage conditions (area %) ([6]; 12 months): 99.72%
- Long-term storage conditions (related substances) (area %) ([6]; 18 months): 0.33%
- Purity under long-term storage conditions (area %) ([6]; 18 months): 99.73%
- Long-term storage conditions (related substances) (area %) ([6]; 24 months): 0.34%
- Purity under long-term storage conditions (area %) ([6]; 24 months): 99.74%
- Long-term storage conditions (related substances) (area %) ([6]; 30 months): 0.34%
- Long-term storage conditions (related substances) (area %) ([6]; 36 months): 0.30%
- Purity under long-term storage conditions (area %) ([6]; 36 months): 99.73%
- Purity under long-term storage conditions (area %) ([6]; initial): 99.66%
- Long-term storage conditions (related substances) (area %) [6, 13]: 0.26%
- Purity under accelerated storage conditions (area %) ([6]; 1 month): 99.64%
- Purity under accelerated storage conditions (area %) ([6]; 3 months): 99.65%
- Accelerated storage conditions (related substances) (area %) [6, 11]: 0.24%
- Purity under accelerated storage conditions (area %) ([6]; 6 months): 99.54%
- Accelerated storage conditions (related substances) (area %) [6, 12]: 0.28%
- Purity under accelerated storage conditions (area %) ([6]; initial): 99.66%
- Accelerated storage conditions (related substances) (area %) [6, 13]: 0.26%
- IC50 [3]: 1.06 nM
- IC50 [7]: 4.31 nM
- IC50 [4]: 2.62 nM
Compound: N#Cc1ccc(N2CCN(Cc3ccc4c5c(c(=O)[nH]c4c3)CCCN5)CC2)nc1 [Example 2, Citrate Anhydride of 6-{4-[(5-oxo-1,2,3,4,5,6-hexahydrobenzo[h][1,6]naphthyridin-8-yl)methyl]piperazine-1-yl}nicotinonitrile]

- Solubility (0.1 g/mL) ([5]; Aqueous HCl solution (pH 1.1), listed as Crystalline monohydrate of citrate in Example 3): 50 mL
- Solubility (0.1 g/mL) ([5]; DMF, listed as Crystalline monohydrate of citrate in Example 3): 2.9 mL
- Solubility (0.1 g/mL) ([5]; EtOH, listed as Crystalline monohydrate of citrate in Example 3): 350 mL
- Solubility (0.1 g/mL) ([5]; MeOH, listed as Crystalline monohydrate of citrate in Example 3): 9 mL
- Solubility (0.1 g/mL) ([5]; Water, listed as Crystalline monohydrate of citrate in Example 3): 400 mL
- Long-term storage conditions (related substances) (area %) [6, 14]: 0.29%
- Long-term storage conditions (related substances) (area %) [6, 15]: 0.32%
- Long-term storage conditions (related substances) (area %) [6, 16]: 0.38%
- Accelerated storage conditions (related substances) (area %) [6, 14]: 0.34%
- Accelerated storage conditions (related substances) (area %) [6, 15]: 0.32%
- Accelerated storage conditions (related substances) (area %) [6, 16]: 0.38%
Compound: N#Cc1ccc(N2CCN(Cc3ccc4c5c(c(=O)[nH]c4c3)CCCN5)CC2)nc1 [Example 3, Citrate Monohydrate of 6-{4-[(5-oxo-1,2,3,4,5,6-hexahydrobenzo[h][1,6]naphthyridin-8-yl)methyl]piperazine-1-yl}nicotinonitrile]

- Solubility (0.1 g/mL) ([5]; Aqueous HCl solution (pH 1.1), listed as Crystalline dihydrate of citrate in Example 4): 55 mL
- Solubility (0.1 g/mL) ([5]; DMF, listed as Crystalline dihydrate of citrate in Example 4): 2.5 mL
- Solubility (0.1 g/mL) ([5]; EtOH, listed as Crystalline dihydrate of citrate in Example 4): 450 mL
- Solubility (0.1 g/mL) ([5]; MeOH, listed as Crystalline dihydrate of citrate in Example 4): 9 mL
- Solubility (0.1 g/mL) ([5]; Water, listed as Crystalline dihydrate of citrate in Example 4): ≥ 400 mL
Compound: N#Cc1ccc(N2CCN(Cc3ccc4c5c(c(=O)[nH]c4c3)CCCN5)CC2)nc1 [Example 4, Citrate Dihydrate of 6-{4-[(5-oxo-1,2,3,4,5,6-hexahydrobenzo[h][1,6]naphthyridin-8-yl)methyl]piperazine-1-yl}nicotinonitrile]
